ChEMBL document CHEMBL4196088, “Induction of cell killing and autophagy by amphiphilic pyrrolidine derivatives on human pancreatic cancer cells” (Eur J Med Chem, 2018)

What was measured:
PANC-1 [1] = experiment: Growth inhibition of human PANC1 cells after 72 hrs by XTT assay; type: functional, cell-based; conditions: PANC-1, 72 h
BXPC-3 = experiment: Growth inhibition of human BxPC3 cells after 72 hrs by XTT assay; type: functional, cell-based; conditions: BXPC-3, 72 h
PANC-1 [2] = experiment: Induction of apoptosis in human PANC1 cells assessed as accumulation at sub-G0/G1 phase at 20 uM after 72 hrs by propidium iodide staining based flow cytometry (reference value: 1.6 to 3.2%); type: functional
PANC-1 [3] = experiment: Induction of apoptosis in human PANC1 cells assessed as accumulation at sub-G0/G1 phase at 10 uM after 48 hrs by propidium iodide staining based flow cytometry (reference value: 0.2 to 2.9%); type: functional
PANC-1 [4] = experiment: Induction of apoptosis in human PANC1 cells assessed as accumulation at sub-G0/G1 phase at 10 uM after 24 hrs by propidium iodide staining based flow cytometry (reference value: 0.6 to 0.7%); type: functional
PANC-1 [5] = experiment: Induction of apoptosis in human PANC1 cells assessed as accumulation at sub-G0/G1 phase at 10 uM after 72 hrs by propidium iodide staining based flow cytometry (reference value: 1.6 to 3.2%); type: functional
PK9 = experiment: Growth inhibition of human PK9 cells after 72 hrs by MTT assay; type: functional, cell-based; conditions: PK9, 72 h
PANC-1 [6] = experiment: Induction of apoptosis in human PANC1 cells assessed as accumulation at sub-G0/G1 phase at 20 uM after 24 hrs by propidium iodide staining based flow cytometry (reference value: 0.6 to 0.7%); type: functional
MIA PaCa-2 = experiment: Growth inhibition of human MIAPaCa2 cells after 72 hrs by MTT assay; type: functional, cell-based; conditions: MIA PaCa-2, 72 h
PANC-1 [7] = experiment: Induction of apoptosis in human PANC1 cells assessed as accumulation at sub-G0/G1 phase at 20 uM after 48 hrs by propidium iodide staining based flow cytometry (reference value: 0.2 to 2.9%); type: functional
HeLa = experiment: Growth inhibition of human HeLa cells after 72 hrs; type: functional, cell-based

Compound | IC50 (PANC-1 [1]) | IC50 (BXPC-3) | IC50 (PK9) | IC50 (MIA PaCa-2) | IC50 (HeLa) | also measured
CC(C)(C)OC(=O)NCC(=O)N1CCC[C@H]1COCCCCCC/C=C/c1ccc(-c2ccccc2)cc1 | 66.7 µM | 66.7 µM | – | – | – | –
CCCCCCCC/C=C\CCCCCCCCOC[C@@H]1CCCN1.Cl | 4.7 µM | 5.3 µM | 6.5 µM | 5.4 µM | – | Activity (PANC-1 [2]): 14.1%; Activity (PANC-1 [3]): 4.6%; Activity (PANC-1 [4]): 2.4%; Activity (PANC-1 [5]): 14.4%; Activity (PANC-1 [6]): 2.2%; Activity (PANC-1 [7]): 2.3%
C=CCCCCCCOC[C@@H]1CCCN1[S+]([O-])c1ccc(C)cc1 (some centres undefined) | 53.3 µM | 50 µM | – | – | – | –
CC(C)(C)OC(=O)N1CCC[C@H]1COCCCCCC/C=C/c1ccc(Oc2ccccc2)cc1 | 63.3 µM | 63.3 µM | 69.5 µM | 8.5 µM | – | –
CCCCCCCC/C=C/CCCCCCCCOC[C@@H]1C[C@@H](O)CN1 | – | – | – | – | 4 µM | –
CC(C)(C)OC(=O)N1CCC[C@H]1COCCCCCCCCC/C=C/c1ccc(-c2ccccc2)cc1 | 80 µM | 60 µM | > 100 µM | 57.4 µM | – | –
C=CCCCCCCOC[C@@H]1CCCN1C(=O)OC(C)(C)C | 56.7 µM | 53.3 µM | 57.1 µM | 47.1 µM | – | –
CCCCCCCC/C=C/CCCCCCCCOC[C@@H]1CCCN1C(=O)OC(C)(C)C | > 100 µM | > 100 µM | > 100 µM | > 100 µM | – | –
CC(C)(C)OC(=O)N1CCC[C@H]1COCCCCCCCC/C=C/c1ccc(-c2ccccc2)cc1 | 90 µM | 70 µM | > 100 µM | 69.2 µM | – | –
CC(=O)N1CCC[C@H]1COCCCCCC/C=C/c1ccc(-c2ccccc2)cc1 | 65 µM | 50 µM | – | – | – | –
Cc1ccc([S+]([O-])N2CCC[C@H]2COCCCCCCCCC/C=C/c2ccc(-c3ccccc3)cc2)cc1 (some centres undefined) | > 100 µM | > 100 µM | – | – | – | –
C(=C\c1ccc(Oc2ccccc2)cc1)/CCCCCCCCCOC[C@@H]1CCCN1 | 60 µM | 56.7 µM | 20.7 µM | 19.3 µM | – | –
CC(=O)N1CCC[C@H]1COCCCCCCCCC/C=C/c1ccc(Oc2ccccc2)cc1 | 65 µM | 73.3 µM | – | – | – | –
O[C@H]1CN[C@H](COCCCCCC/C=C/c2ccc(Oc3ccccc3)cc2)C1 | – | – | – | – | 5.1 µM | –
CCCCCCCC/C=C\CCCCCCCCOC[C@@H]1C[C@@H](O)CN1 | – | – | – | – | 3.9 µM | –
C=CCCCCCCOC[C@@H]1C[C@@H](O)CN1 | – | – | – | – | > 100 µM | –
CCCCCCCC/C=C\CCCCCCCCOC[C@@H]1CCCN1[S+]([O-])c1ccc(C)cc1 (some centres undefined) | > 100 µM | > 100 µM | – | – | – | –
Cc1ccc([S+]([O-])N2CCC[C@H]2COCCCCCC/C=C/c2ccc(Oc3ccccc3)cc2)cc1 (some centres undefined) | 60 µM | 50 µM | – | – | – | –
O=CN1CCC[C@H]1COCCCCCC/C=C/c1ccc(-c2ccccc2)cc1 | 50 µM | 53.3 µM | – | – | – | –
CC(=O)N1CCC[C@H]1COCCCCCC/C=C/c1ccc(Oc2ccccc2)cc1 | 40 µM | 60 µM | – | – | – | –
CC(C)(C)OC(=O)N1CCC[C@H]1COCCCCCCCCC/C=C/c1ccc(Oc2ccccc2)cc1 | > 100 µM | – | > 100 µM | 59.6 µM | – | –
CCCCCCCC/C=C\CCCCCCCCOC[C@@H]1CCCN1C(=O)[C@@H]1CCCN1C(=O)OC(C)(C)C | > 100 µM | > 100 µM | – | – | – | –
CC(=O)N1CCC[C@H]1COCCCCCCCCC/C=C/c1ccc(-c2ccccc2)cc1 | 70 µM | 56.7 µM | – | – | – | –
CC(C)(C)OC(=O)NCC(=O)N1CCC[C@H]1COCCCCCC/C=C/c1ccc(Oc2ccccc2)cc1 | 63.3 µM | 80 µM | – | – | – | –
CC(C)(C)OC(=O)NCC(=O)N1CCC[C@H]1COCCCCCCCCC/C=C/c1ccc(-c2ccccc2)cc1 | > 100 µM | > 100 µM | – | – | – | –
C=CCCCCCCCCCOC[C@@H]1C[C@@H](O)CN1 | – | – | – | – | 39 µM | –

Compound | IC50 (PANC-1 [1]) | IC50 (BXPC-3) | IC50 (PK9) | IC50 (MIA PaCa-2) | IC50 (HeLa) | also measured
C=CCCCCCCCCCOC[C@@H]1CCCN1C(=O)OC(C)(C)C | ≥ 100 µM | 50 µM | > 100 µM | 50.3 µM | – | –
O[C@H]1CN[C@H](COCCCCCCCC/C=C/c2ccc(-c3ccccc3)cc2)C1 | – | – | – | – | 3.9 µM | –
C=CCCCCCCOC[C@@H]1C[C@@H](O)CN1C(=O)OC(C)(C)C | – | – | – | – | 23 µM | –
O=CN1CCC[C@H]1COCCCCCCCCC/C=C/c1ccc(Oc2ccccc2)cc1 | 63.3 µM | 65 µM | – | – | – | –
O=CN1CCC[C@H]1COCCCCCC/C=C/c1ccc(Oc2ccccc2)cc1 | 53.3 µM | 46.7 µM | – | – | – | –
CCCCCCCC/C=C\CCCCCCCCOC[C@@H]1C[C@@H](O)CN1C(=O)OC(C)(C)C | – | – | – | – | 40 µM | –
C=CCCCCCCCCCOC[C@@H]1CCCN1 | 50 µM | 6.3 µM | 18.9 µM | 17.1 µM | – | –
C=CCCCCCCCCCOC[C@@H]1CCCN1[S+]([O-])c1ccc(C)cc1 (some centres undefined) | 56.7 µM | 50 µM | – | – | – | –
CC(C)(C)OC(=O)N1C[C@H](O)C[C@H]1COCCCCCC/C=C/c1ccc(-c2ccccc2)cc1 | – | – | – | – | 38.5 µM | –
CC(C)(C)OC(=O)N1CCC[C@H]1COCCCCCC/C=C/c1ccc(-c2ccccc2)cc1 | > 100 µM | > 100 µM | > 100 µM | 23 µM | – | –
CC(C)(C)OC(=O)N1CCC[C@H]1COCCCCCCCC/C=C/c1ccc(Oc2ccccc2)cc1 | 90 µM | > 100 µM | > 100 µM | > 100 µM | – | –
CC(C)(C)OC(=O)NCC(=O)N1CCC[C@H]1COCCCCCCCCC/C=C\c1ccc(Oc2ccccc2)cc1 | > 100 µM | > 100 µM | – | – | – | –
CCCCCCCC/C=C\CCCCCCCCOC[C@@H]1CCCN1C(=O)OC(C)(C)C | 80 µM | > 100 µM | > 100 µM | > 100 µM | – | –
Cc1ccc([S+]([O-])N2CCC[C@H]2COCCCCCCCCC/C=C/c2ccc(Oc3ccccc3)cc2)cc1 (some centres undefined) | > 100 µM | – | – | – | – | –
CC(C)(C)OC(=O)N1C[C@H](O)C[C@H]1COCCCCCCCCC/C=C/c1ccc(Oc2ccccc2)cc1 | – | – | – | – | 45.9 µM | –
C(=C\c1ccc(Oc2ccccc2)cc1)/CCCCCCOC[C@@H]1CCCN1 | 30 µM | 49.7 µM | 11.4 µM | 7.4 µM | – | –
C=CCCCCCCCCCOC[C@@H]1C[C@@H](O)CN1C(=O)OC(C)(C)C | – | – | – | – | 39 µM | –
CC(C)(C)OC(=O)N1C[C@H](O)C[C@H]1COCCCCCCCC/C=C/c1ccc(Oc2ccccc2)cc1 | – | – | – | – | 41 µM | –
CCCCCCCC/C=C/CCCCCCCCOC[C@@H]1C[C@@H](O)CN1C(=O)OC(C)(C)C | – | – | – | – | 29.5 µM | –
C=CCCCCCCOC[C@@H]1CCCN1 | > 100 µM | > 100 µM | 57.7 µM | 72.9 µM | – | –
C(=C\c1ccc(Oc2ccccc2)cc1)/CCCCCCCCOC[C@@H]1CCCN1 | 50 µM | 43.3 µM | 20.8 µM | 18.3 µM | – | –
CC(C)(C)OC(=O)N1C[C@H](O)C[C@H]1COCCCCCCCCC/C=C/c1ccc(-c2ccccc2)cc1 | – | – | – | – | 36.5 µM | –
O=CN1CCC[C@H]1COCCCCCCCCC/C=C/c1ccc(-c2ccccc2)cc1 | 56.7 µM | 66.7 µM | – | – | – | –
CC(C)(C)OC(=O)N1C[C@H](O)C[C@H]1COCCCCCCCC/C=C/c1ccc(-c2ccccc2)cc1 | – | – | – | – | 37.5 µM | –
Cc1ccc([S+]([O-])N2CCC[C@H]2COCCCCCC/C=C/c2ccc(-c3ccccc3)cc2)cc1 (some centres undefined) | ≥ 100 µM | ≥ 100 µM | – | – | – | –
CC(C)(C)OC(=O)N1C[C@H](O)C[C@H]1COCCCCCC/C=C/c1ccc(Oc2ccccc2)cc1 | – | – | – | – | 41 µM | –
